Data taken from PubChem BioAssay (NCI).
Values joined by “and” are separate entries in the source; they are usually repeats but may differ in a detail not shown here. Identical values can stand only once.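 Exposure lasted 48 hours, with cells grown in 96-well plates and compounds tested at five concentrations. The concentration for 50% growth inhibition is given as GI50. TGI is the concentration that stops growth completely.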

Legend:
Test in all cases: NCI tumour cell line growth inhibition, 48 h
786-0 renal = system: 786-0 renal
A498 renal = system: A498 renal
A549 NSCLC = system: A549 NSCLC
ACHN renal = system: ACHN renal
CAKI-1 renal = system: CAKI-1 renal
CCRF-CEM leukemia = system: CCRF-CEM leukemia
COLO 205 colon = system: COLO 205 colon
DLD-1 colon = system: DLD-1 colon
DMS 114 small cell lung = system: DMS 114 small cell lung
DMS 273 small cell lung = system: DMS 273 small cell lung
EKVX NSCLC = system: EKVX NSCLC
HCC-2998 colon = system: HCC-2998 colon
HCT-116 colon = system: HCT-116 colon
HCT-15 colon = system: HCT-15 colon
HL-60(TB) leukemia = system: HL-60(TB) leukemia
HOP-18 NSCLC = system: HOP-18 NSCLC
HOP-62 NSCLC = system: HOP-62 NSCLC
HOP-92 NSCLC = system: HOP-92 NSCLC
HT29 colon = system: HT29 colon
IGROV1 ovarian = system: IGROV1 ovarian
K-562 leukemia = system: K-562 leukemia
KM12 colon = system: KM12 colon
KM20L2 colon = system: KM20L2 colon
LOX IMVI melanoma = system: LOX IMVI melanoma
LXFL 529 NSCLC = system: LXFL 529 NSCLC
M14 melanoma = system: M14 melanoma
M19-MEL melanoma = system: M19-MEL melanoma
MALME-3M melanoma = system: MALME-3M melanoma
MOLT-4 leukemia = system: MOLT-4 leukemia
NCI-H226 lung = system: NCI-H226 lung
NCI-H23 lung = system: NCI-H23 lung
NCI-H460 lung = system: NCI-H460 lung
NCI-H522 lung = system: NCI-H522 lung
OVCAR-3 ovarian = system: OVCAR-3 ovarian
OVCAR-4 ovarian = system: OVCAR-4 ovarian
OVCAR-5 ovarian = system: OVCAR-5 ovarian
OVCAR-8 ovarian = system: OVCAR-8 ovarian
RPMI-8226 leukemia = system: RPMI-8226 leukemia
RXF 393 renal = system: RXF 393 renal
SF-268 CNS = system: SF-268 CNS
SF-295 CNS = system: SF-295 CNS
SF-539 CNS = system: SF-539 CNS
SK-MEL-2 melanoma = system: SK-MEL-2 melanoma
SK-MEL-28 melanoma = system: SK-MEL-28 melanoma
SK-MEL-5 melanoma = system: SK-MEL-5 melanoma
SK-OV-3 ovarian = system: SK-OV-3 ovarian
SN12C renal = system: SN12C renal
SNB-19 CNS = system: SNB-19 CNS
SNB-75 CNS = system: SNB-75 CNS
SNB-78 CNS = system: SNB-78 CNS
SW-620 colon = system: SW-620 colon
TK-10 renal = system: TK-10 renal
U251 CNS = system: U251 CNS
UACC-257 melanoma = system: UACC-257 melanoma
UACC-62 melanoma = system: UACC-62 melanoma
UO-31 renal = system: UO-31 renal
XF 498 CNS = system: XF 498 CNS
SR leukemia = system: SR leukemia

O=C1c2ccccc2-c2c3c(cc4ccnc1c24)OCO3
TGI (786-0 renal): 27.2 µM and > 100 µM | TGI (A498 renal): 12.8 µM | TGI (A549 NSCLC): 14.3 µM and 17.4 µM | TGI (ACHN renal): 24 µM and 29.3 µM | TGI (CAKI-1 renal): 28.1 µM and 15.5 µM | TGI (CCRF-CEM leukemia): 39 µM and 20.7 µM | TGI (COLO 205 colon): 82.5 µM and 16 µM | TGI (DLD-1 colon): 24.7 µM and 27.3 µM | GI50 (DMS 114 small cell lung): 10.1 µM and 4.87 µM | TGI (DMS 114 small cell lung): > 100 µM and 32.4 µM | TGI (DMS 273 small cell lung): 29.4 µM and 19.2 µM | TGI (EKVX NSCLC): 11.7 µM and 35.7 µM | TGI (HCC-2998 colon): 60.1 µM | TGI (HCT-116 colon): 33.3 µM and 33.6 µM | TGI (HCT-15 colon): 68.3 µM and > 100 µM | TGI (HL-60(TB) leukemia): 15.6 µM | TGI (HOP-18 NSCLC): > 100 µM | TGI (HOP-62 NSCLC): 21.1 µM | TGI (HOP-92 NSCLC): 39.9 µM and 37.1 µM | TGI (HT29 colon): > 100 µM and 78 µM | TGI (IGROV1 ovarian): > 100 µM and 34.3 µM | TGI (K-562 leukemia): > 100 µM and 15 µM | TGI (KM12 colon): > 100 µM | TGI (KM20L2 colon): > 100 µM and 60.9 µM | TGI (LOX IMVI melanoma): 58.4 µM and 15 µM | TGI (LXFL 529 NSCLC): 51.5 µM and > 100 µM | TGI (M14 melanoma): > 100 µM | TGI (M19-MEL melanoma): 86.7 µM and 12.9 µM | TGI (MALME-3M melanoma): 11 µM and 15.6 µM | TGI (MOLT-4 leukemia): 15.6 µM and > 100 µM | TGI (NCI-H226 lung): 26.2 µM and 24.4 µM | TGI (NCI-H23 lung): 25.9 µM and 17.4 µM | TGI (NCI-H460 lung): 19.6 µM and 16.4 µM | GI50 (NCI-H522 lung): 0.885 µM and 4.26 µM | TGI (NCI-H522 lung): 13.3 µM and 15.5 µM | TGI (OVCAR-3 ovarian): 60.4 µM and 48.9 µM | TGI (OVCAR-4 ovarian): 69.7 µM and > 100 µM | TGI (OVCAR-5 ovarian): 37.8 µM and 57.6 µM | TGI (OVCAR-8 ovarian): 27.7 µM and 25.5 µM | TGI (RPMI-8226 leukemia): 29.3 µM and 54.4 µM | TGI (RXF 393 renal): 18.4 µM and 33 µM | TGI (SF-268 CNS): 47.1 µM and > 100 µM | TGI (SF-295 CNS): 33.6 µM and 48.4 µM | GI50 (SF-539 CNS): 7.97 µM and 3.53 µM | TGI (SF-539 CNS): 53.5 µM and 37.8 µM | TGI (SK-MEL-2 melanoma): 19.3 µM and 28.5 µM | TGI (SK-MEL-28 melanoma): 30.7 µM and > 100 µM | TGI (SK-MEL-5 melanoma): 8.66 µM | TGI (SK-OV-3 ovarian): 84.4 µM and > 100 µM | TGI (SN12C renal): > 100 µM | TGI (SNB-19 CNS): > 100 µM and 77.4 µM | TGI (SNB-75 CNS): 26.3 µM and 21.1 µM | GI50 (SNB-78 CNS): 14.9 µM and 6.03 µM | TGI (SNB-78 CNS): 66.1 µM and > 100 µM | TGI (SW-620 colon): 23.4 µM and > 100 µM | GI50 (TK-10 renal): 3.02 µM and 10.2 µM | TGI (U251 CNS): 35.1 µM and > 100 µM | GI50 (UACC-257 melanoma): 5.23 µM and 2.59 µM | TGI (UACC-257 melanoma): 39.2 µM and 11.7 µM | TGI (UACC-62 melanoma): 69.2 µM and 8.07 µM | TGI (UO-31 renal): 23.9 µM and 14.8 µM | TGI (XF 498 CNS): 21.1 µM and 22.1 µM

CC#Cc1c(O)c2c(c(O)c1C#CC)C(=O)c1ccccc1C2=O
TGI (786-0 renal): > 100 µM | TGI (A549 NSCLC): > 100 µM | TGI (ACHN renal): > 100 µM | TGI (CAKI-1 renal): > 100 µM | TGI (CCRF-CEM leukemia): > 100 µM | TGI (COLO 205 colon): > 100 µM | TGI (DLD-1 colon): > 100 µM | TGI (DMS 114 small cell lung): > 100 µM | TGI (DMS 273 small cell lung): > 100 µM | TGI (EKVX NSCLC): > 100 µM | TGI (HCC-2998 colon): > 100 µM | TGI (HCT-15 colon): > 100 µM | TGI (HL-60(TB) leukemia): > 100 µM | TGI (HOP-62 NSCLC): > 100 µM | TGI (IGROV1 ovarian): > 100 µM | TGI (K-562 leukemia): > 100 µM | TGI (KM20L2 colon): > 100 µM | TGI (LOX IMVI melanoma): > 100 µM | TGI (LXFL 529 NSCLC): 42.7 µM | TGI (M14 melanoma): > 100 µM | TGI (M19-MEL melanoma): > 100 µM | TGI (MALME-3M melanoma): > 100 µM | TGI (MOLT-4 leukemia): > 100 µM | TGI (OVCAR-4 ovarian): > 100 µM | TGI (OVCAR-5 ovarian): > 100 µM | TGI (OVCAR-8 ovarian): > 100 µM | TGI (RPMI-8226 leukemia): > 100 µM | TGI (SK-MEL-2 melanoma): > 100 µM | TGI (SK-MEL-5 melanoma): > 100 µM | TGI (SK-OV-3 ovarian): > 100 µM | TGI (SN12C renal): > 100 µM | TGI (SR leukemia): > 100 µM | TGI (SW-620 colon): > 100 µM | TGI (TK-10 renal): > 100 µM | TGI (U251 CNS): > 100 µM | TGI (UACC-62 melanoma): > 100 µM | TGI (XF 498 CNS): > 100 µM
